Measurements taken from US7795215B2, “MNTF peptides and compositions and methods of use” (Genervon Biopharmaceuticals LLC, priority 2003, dated 2010).
“Also recorded” adds a separate entry of the source. Where no end group is shown, it is not given here.

System: VSC4.1 cells, a motor neuron/neuroblastoma cell hybrid
Assay: VSC4.1 cell proliferation assay (BrdU)
Format: cell-based
Conditions: for Biological Function / OD (optimal dose): VSC4.1 proliferation; for maximal increase in cell proliferation: % increase over control
Method: Studies of proliferation were performed in 96 well plates utilizing a cell proliferation assay kit from Roche Diagnostics GmbH (Mannheim, Germany). VSC4.1 cells, a motor neuron/neuroblastoma cell hybrid, were cultured in DMEM with 2% FBS containing either no MNTF or a dose range of MNTF from 10^−8 to 10^−5 g/ml. Each treatment was applied in triplicate wells. The cells were cultured for 21 hours and 5-bromo-2′-deoxyuridine (BrdU) from the assay kit was added to each well. After BrdU labeling for 3 hours, the cells were washed, fixed and dried. The cells were then fixed and the DNA denatured to improve access for the subsequent antibody binding. POD-labeled mouse monoclonal anti-BrdU antibody from the assay kit was applied for 2 hours, followed by a wash. The assay was quantitated by adding the colorimetric assay solution (tetramethyl benzidine) and reading at 450 nm on a Wallac Vector 2 plate reader. Cells in the treatment groups were quantitated by comparing to wells plated with a gradient of cells from 0 to 20,000 cells/well on the same plate. Data is expressed as % of control to allow for variability from plate to plate.
Additional cell proliferation assays, conducted essentially as described above, were performed to compare the effects of several GLP grade MNTF peptides.
Further cell proliferation studies were performed, essentially as described above, to test the response of the motor neuron/neuroblastoma cells to three new preparations of MNTF. The MNTF preparations utilized for these assays were: […]

Substance	Biological Function (assay set Mar. 28, 2003)	OD (optimal dose) (assay set Mar. 28, 2003)	Biological Function (assay set Oct. 27, 2002)	OD (optimal dose) (assay set Oct. 27, 2002)	dose of maximal response (earliest studies, FIG. 2)	relative effectiveness in proliferation assay (words) (earliest studies, FIG. 2)	maximal increase in cell proliferation (earliest studies, FIG. 2)	effect on proliferation of motor neuron/neuroblastoma cells (summary in description) (in vitro)	relative effectiveness in proliferation assay (words) (second set, FIG. 3)	Biological Function (assay set Aug. 4, 2003)	OD (optimal dose) (assay set Aug. 4, 2003)	relative effectiveness in proliferation assay (words) (third set, FIG. 4)	further results
FSRYARCLAEG [11mer]	Effective	1 µg/mL	Effective	10 µg/mL	10 µg/mL	comparably effective	32.2%	sufficient to increase cell proliferation of motor neuron/neuroblastoma cells	poorest performers; also recorded: less effectively than the others				fold increase in proliferation (second set, FIG. 3, at 1 μg/ml): ~2.5 fold
MLSAFSRYAR [10mer]								at least as effective the full-length MNTF 33mer		Effective	0.01 µg/mL	significantly (p<0.05) stimulated proliferation over control; also recorded: most active proliferative agent; also recorded: clearly superior to the 21mer	lowest concentration at which at least as effective as MNTF 33mer (in vitro): 0.01 µg/mL; increase in proliferation over controls (third set, FIG. 4, three lowest doses used): ~200%
MLSAFSRYARCLAEGHDGPTQ [21mer]								sufficient to increase cell proliferation of motor neuron/neuroblastoma cells		Effective	0.1 µg/mL	significantly (p<0.05) stimulated proliferation over control; also recorded: about half that of the other two MNTF isoforms	
WMLSAFS [7mer]	Effective	100 µg/mL	Effective	1 µg/mL	1 µg/mL	markedly less effective	25.1%	potent stimulator of motor neuron/neuroblastoma cells in vitro over a broad range of dosage levels	most potent preparation across the whole dose range; also recorded: most active proliferative agent				relative effectiveness in proliferation assay (words) (earliest studies, FIG. 2, listed as MNTF 7mer): broader active dose range than the other preparations; stimulation of VSC4.1 cell proliferation over controls (second round of experiments): 350%; fold increase in proliferation (second set, FIG. 3, highest dose): ~3.5 fold; fold increase in proliferation (second set, FIG. 3, lowest dose applied): 2.5 fold
cyclized MNTF 13mer: cyclized version of the 13-mer CWMLSAFSRYARC, SEQ ID NO:6, research grade (also: cyclized)			Limited Efficacy.		1 µg/mL	least effective of all peptides tested	17.3%	not as effective at stimulating cell proliferation in vitro					effect on proliferation at higher doses (earliest studies, FIG. 2, higher doses): appeared to inhibit proliferation; relative effectiveness in proliferation assay (words) (earliest studies, FIG. 2, listed as cyclized 13mer): markedly less effective
